This note sets out measurements from US9884063B2, “Amido-substituted azole compounds” (Bayer Pharma Aktiengesellschaft, priority 2014, dated 2018).

The experiment concerns the target T1, TNKS2 (Homo sapiens, UniProt Q9H2K2).
T1 sequence (Q9H2K2 1-1166): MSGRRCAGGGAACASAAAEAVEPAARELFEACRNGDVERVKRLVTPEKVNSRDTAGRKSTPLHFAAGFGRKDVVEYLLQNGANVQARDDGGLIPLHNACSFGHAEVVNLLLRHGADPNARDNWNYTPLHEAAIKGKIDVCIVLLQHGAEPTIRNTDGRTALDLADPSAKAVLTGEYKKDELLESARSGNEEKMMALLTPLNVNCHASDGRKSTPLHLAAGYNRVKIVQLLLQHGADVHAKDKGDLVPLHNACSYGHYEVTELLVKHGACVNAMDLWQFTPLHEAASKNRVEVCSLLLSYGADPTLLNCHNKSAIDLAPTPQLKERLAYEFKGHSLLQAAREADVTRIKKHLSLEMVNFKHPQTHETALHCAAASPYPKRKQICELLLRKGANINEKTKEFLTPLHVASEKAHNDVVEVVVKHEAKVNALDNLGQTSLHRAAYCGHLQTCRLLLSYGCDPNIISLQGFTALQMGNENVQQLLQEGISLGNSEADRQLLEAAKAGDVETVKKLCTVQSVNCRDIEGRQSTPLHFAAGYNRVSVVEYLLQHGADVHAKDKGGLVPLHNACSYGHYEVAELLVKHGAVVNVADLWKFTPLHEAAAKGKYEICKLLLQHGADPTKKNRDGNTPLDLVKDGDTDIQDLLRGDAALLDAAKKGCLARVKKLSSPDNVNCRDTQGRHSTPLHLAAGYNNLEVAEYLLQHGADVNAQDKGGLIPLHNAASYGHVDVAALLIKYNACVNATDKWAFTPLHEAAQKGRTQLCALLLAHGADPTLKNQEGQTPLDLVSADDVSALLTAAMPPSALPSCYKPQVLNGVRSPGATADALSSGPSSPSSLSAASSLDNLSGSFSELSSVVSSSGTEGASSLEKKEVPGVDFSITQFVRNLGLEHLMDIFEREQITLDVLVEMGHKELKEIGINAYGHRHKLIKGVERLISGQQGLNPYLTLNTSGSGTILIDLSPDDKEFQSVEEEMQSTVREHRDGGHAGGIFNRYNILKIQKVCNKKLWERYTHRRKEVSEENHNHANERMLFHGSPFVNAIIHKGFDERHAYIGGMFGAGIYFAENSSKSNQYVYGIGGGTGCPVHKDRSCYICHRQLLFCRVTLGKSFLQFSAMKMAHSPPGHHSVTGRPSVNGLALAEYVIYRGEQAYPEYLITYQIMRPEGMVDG
The experiment can be described thus: Modified TNKS2 Assay 3 (BPS kit #80578, biotin-NAD+, 96 well). It counts as biochemical. To be noted: human TNKS2, BPS kit #80578, 96 well. As to the method:
The potency of the compounds against human TNKS2 according to the invention was assessed using a commercially available biotin/streptavidin binding assay kits from BPS Bioscience, San Diego, USA (Catalog #80578 for TNKS2). The incorporation of a biotin-labeled NAD+ during the […] catalyzed ribosylation of a suitable protein substrate was detected using with a streptavidin-HRP coupled chemi-luminescent readout. The intensity of the readout signal is proportional to the incorporated NAD^+. Inhibition of TNKS2 leads to a decreased incorporation of NAD^+ and consequently to a lower readout signal intensity in the corresponding TNKS2 assays. The concentration of a test compound that inhibits the enzyme activity by 50% (corresponds to half of the normed readout signal intensity) is reported as IC50. The assay conducted in a 96 well MTP format according to the manufacturer's protocol and using a BMG Pherastar MTP reader [BMG-Labtech, Offenburg, Germany].
As for `CNC(=O)c1nc[nH]c1C(=O)Nc1ccc(NC(=O)c2ccc(F)cc2Cl)cc1` [Example 12, N^5-{4-[(2-chloro-4-fluorobenzoyl)amino]phenyl}-N^4-methyl-1H-imidazole-4,5-dicarboxamide], the IC50 is 0.06 µM. `CNC(=O)c1nc[nH]c1C(=O)Nc1ccc(NC(=O)c2ccc(F)cc2Cl)nc1` [Example 16, N^5-{6-[(2-chloro-4-fluorobenzoyl)amino]pyridin-3-yl}-N^4-methyl-1H-imidazole-4,5-dicarboxamide] came in with an IC50 of 0.04 µM. `O=C(Nc1ccc(NC(=O)c2[nH]cnc2C(=O)NCC(F)(F)F)cc1)c1ccc(F)cc1Cl` [Example 30, N^4-{4-[(2-chloro-4-fluorobenzoyl)amino]phenyl}-N^5-(2,2,2-trifluoroethyl)-1H-imidazole-4,5-dicarboxamide] gave a half-inhibitory concentration (IC50) of 0.13 µM. In turn, `CNC(=O)c1nc[nH]c1C(=O)Nc1ccc(NC(=O)c2c(F)cc(F)cc2Cl)cc1` [Example 118, N^5-{4-[(2-chloro-4,6-difluorobenzoyl)amino]phenyl}-N^4-methyl-1H-imidazole-4,5-dicarboxamide] came in with a concentration for half-maximal inhibition (IC50) of 0.23 µM. In turn, `O=C(NCCN1CCCCC1)c1nc[nH]c1C(=O)Nc1ccc(NC(=O)c2c(F)cc(F)cc2Cl)cc1` [Example 119, N^5-{4-[(2-chloro-4,6-difluorobenzoyl)amino]phenyl}-N^4-[2-(piperidin-1-yl)ethyl]-1H-imidazole-4,5-dicarboxamide] displayed an IC50 below 0.0005 µM.

Take `NC(=O)c1nc[nH]c1C(=O)Nc1ccc(NC(=O)c2ccc(F)cc2Cl)cc1` [Example 121]: the midpoint of inhibition, the IC50, lay at 0.11 µM. `CC1CCN(CCNC(=O)c2nc[nH]c2C(=O)Nc2ccc(NC(=O)c3ccc(F)cc3Cl)cc2)CC1` [Example 126, N^5-{4-[(2-chloro-4-fluorobenzoyl)amino]phenyl}-N^4-[2-(4-methylpiperidin-1-yl)ethyl]-1H-imidazole-4,5-dicarboxamide] had an IC50 of 0.001 µM. `COCCNC(=O)c1[nH]cnc1C(=O)Nc1ccc(NC(=O)c2ccc(F)cc2Cl)cc1` [Example 130, N^4-{4-[(2-chloro-4-fluorobenzoyl)amino]phenyl}-N^5-(2-methoxyethyl)-1H-imidazole-4,5-dicarboxamide] gave an IC50 of 0.17 µM. With `CC1CCCN(CCNC(=O)c2[nH]cnc2C(=O)Nc2ccc(NC(=O)c3ccc(F)cc3Cl)cc2)C1` (centres unmarked) [Example 208, N^4-{4-[(2-chloro-4-fluorobenzoyl)amino]phenyl}-N^5-[2-(3-methylpiperidin-1-yl)ethyl]-1H-imidazole-4,5-dicarboxamide], the IC50 was 0.003 µM. `O=C(Nc1ccc(NC(=O)c2nc[nH]c2C(=O)NCCN2CCCC(F)C2)cc1)c1ccc(F)cc1Cl` (centres unmarked) [Example 226, N^4-{4-[(2-chloro-4-fluorobenzoyl)amino]phenyl}-N^5-[2-(3-fluoropiperidin-1-yl)ethyl]-1H-imidazole-4,5-dicarboxamide] returned an IC50 of 0.0009 µM. With `O=C(Nc1ccc(NC(=O)c2nc[nH]c2C(=O)NC2CCOC2)cc1)c1ccc(F)cc1Cl` (centres unmarked) [Example 236, N^4-{4-[(2-chloro-4-fluorobenzoyl)amino]phenyl}-N^5-(tetrahydrofuran-3-yl)-1H-imidazole-4,5-dicarboxamide], the IC50 came to 0.08 µM. In turn, `CNC(=O)c1nc[nH]c1C(=O)Nc1ccc(NC(=O)c2cc(OC)c(OC)cc2Cl)cc1` [Example 240, N^5-{4-[(2-chloro-4,5-dimethoxybenzoyl)amino]phenyl}-N^4-methyl-1H-imidazole-4,5-dicarboxamide] registered an IC50 of 0.03 µM. In the case of `CNC(=O)c1nc[nH]c1C(=O)Nc1ccc(NC(=O)c2cc(F)c(F)cc2Cl)cc1` [Example 242, N^5-{4-[(2-chloro-4,5-difluorobenzoyl)amino]phenyl}-N^4-methyl-1H-imidazole-4,5-dicarboxamide], half-maximal inhibition (IC50) was put at 0.12 µM. Compound `CNC(=O)c1nc[nH]c1C(=O)Nc1ccc(NC(=O)c2ccc(C)cc2Cl)cc1` [Example 244, N^5-{4-[(2-chloro-4-methylbenzoyl)amino]phenyl}-N^4-methyl-1H-imidazole-4,5-dicarboxamide] yielded a concentration for half-maximal inhibition (IC50) of 0.03 µM.

As a reminder, the IC50 is the midpoint of a concentration-inhibition curve.
